Assays:
goosegrass = test: Test C preemergence; type: in vivo, Eleusine indica; conditions: for Plant response rating (scale of 0 to 100), Goosegrass: Preemergence, 250 g ai/ha; for Goosegrass plant response rating / Plant response rating, Goosegrass: preemergence; for Plant response rating, Goosegrass: 62 g ai/ha, scale 0 to 100, 0 = no effect, 100 = complete control
Description: Seeds of plant species selected from blackgrass (Alopecurus myosuroides), ryegrass, Italian (Italian ryegrass, Lolium multiflorum), wheat (winter wheat, Triticum aestivum), galium (catchweed bedstraw, Galium aparine), corn (Zea mays), crabgrass, large (large crabgrass, Digitaria sanguinalis), foxtail, giant (giant foxtail, Setaria faberii), johnsongrass (Sorghum halepense), lambsquarters (Chenopodium album), morningglory (Ipomoea coccinea), nutsedge, yellow (yellow nutsedge, Cyperus esculentus), pigweed (redroot pigweed, Amaranthus retroflexus), ragweed (common ragweed, Ambrosia elation), soybean (Glycine max), barnyardgrass (Echinochloa crus-galli), oilseed rape (Brassica napus), waterhemp (common waterhemp, Amaranthus rudis), oat, wild (wild oat, Avena fatua), kochia (Kochia scoparia), Surinam grass (Brachiaria decumbens), foxtail, green (green foxtail, Setaria viridis), goosegrass (Eleusine indica), bromegrass, downy (downy bromegrass, Bromus tectorum), nightshade (eastern black nightshade, Solanum ptycanthum), cocklebur (common cocklebur, Xanthium strumarium), cupgrass, woolly (woolly cupgrass, Eriochloa villosa), bermudagrass (Cynodon dactylon), sunflower, (common oilseed sunflower, Helianthus annuus), Russian thistle (Salsola kali), and velvetleaf (Abutilon theophrasti) were planted into a blend of loam soil and sand and treated preemergence with test chemicals formulated in a non-phytotoxic solvent mixture which included a surfactant.
At the same time, plants selected from these crop and weed species and also chickweed (common chickweed, Stellaria media), canarygrass (littleseed canarygrass, Phalaris minor), and deadnettle (henbit deadnettle, Lamium amplexicaule), were planted in pots containing Redi-Earth® planting medium (Scotts Company, 14111 Scottslawn Road, Marysville, Ohio 43041) comprising spaghnum peat moss, vermiculite, wetting agent and starter nutrients and treated with postemergence applications of test chemicals formulated in the same manner. Plants ranged in height from 2 to 18 cm (1- to 4-leaf stage) for postemergence treatments. Treated plants and controls were maintained in a greenhouse for 13 to 15 days, after which time all species were compared to controls and visually evaluated. Plant response ratings, summarized in Table C, are based on a scale of 0 to 100 where 0 is no effect and 100 is complete control. A dash (-) response means no test result.

wild poinsettia = test: Test F preemergence; type: in vivo, Euphorbia heterophylla
Description: (§1) Seeds of plant species selected from corn (Zea mays), soybean (Glycine max), velvetleaf (Abutilon theophrasti), lambsquarters (Chenopodium album), wild poinsettia (Euphorbia heterophylla), pigweed, palmer (palmer pigweed, Amaranthus palmeri), common waterhemp (Amaranthus rudis), surinam grass (Brachiaria decumbens), large crabgrass (Digitaria sanguinalis), crabgrass, Brazil (Brazilian crabgrass, Digitaria horizontalis), fall panicum (Panicum dichotomiflorum), giant foxtail (Setaria faberii), green foxtail (Setaria viridis), goosegrass (Eleusine indica), johnsongrass (Sorghum halepense), common ragweed (Ambrosia elation), barnyardgrass (Echinochloa crus-galli), southern sandbur (Cenchrus echinatus), arrowleaf sida (Sida rhombifolia), Italian ryegrass (Lolium multiflorum), dayflower, VA (Virginia (VA) dayflower, Commelina virginica), field bindweed (Convolvulus arvensis), cocklebur (common cocklebur, Xanthium strumarium), morningglory (Ipomoea coccinea), nightshade (eastern black nightshade, Solanum ptycanthum), kochia (Kochia scoparia), yellow nutsedge (Cyperus esculentus), and hairy beggarticks (Bidens pilosa), were planted into a silt loam soil and treated preemergence with test chemicals formulated in a non-phytotoxic solvent mixture which included a surfactant.
(§2) At the same time, plants from these crop and weed species and also horseweed (Canada horseweed, Conyza canadensis), smartweed (ladysthumb smartweed, Polygonum persicaria), waterhemp_RES1, (ALS & Triazine resistant common waterhemp, Amaranthus rudis), and waterhemp_RES2, (ALS & HPPD resistant common waterhemp, Amaranthus rudis) were treated with postemergence applications of test chemicals formulated in the same manner. Plants ranged in height from 2 to 18 cm for postemergence treatments (1- to 4-leaf stage). Treated plants and controls were maintained in a greenhouse for 14 to 21 days, after which time all species were compared to controls and visually evaluated. Plant response ratings, summarized in Table F, are based on a scale of 0 to 100 where 0 is no effect and 100 is complete control. A dash (-) response means no test result.

arrowleaf sida = test: Test F preemergence; type: in vivo, Sida rhombifolia
Description: as §1, §2

large crabgrass = test: Test F preemergence; type: in vivo, Digitaria sanguinalis
Description: as §1, §2

pigweed, palmer = test: Test F preemergence; type: in vivo, Amaranthus palmeri
Description: as §1, §2

galium = test: Test A postemergence; type: in vivo, Galium aparine
In short: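 Growth medium: loam soil blended with sand. Preemergence treatment used a directed soil spray right after planting; postemergence treatment targeted seedlings at one to two leaves (2–10 cm height). Response was judged by eye relative to untreated plants about 10 days later on a 0–100 control scale.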

[1] = 31 g ai/ha, scale 0 to 100 (0 no effect, 100 complete control), 13 to 15 days
[2] = 125 g ai/ha, scale 0 to 100, 0 is no effect, 100 is complete control
[3] = Preemergence, 31 g ai/ha, scale 0 to 100
[4] = Preemergence, 62 g ai/ha, scale 0 to 100
[5] = Preemergence, 125 g ai/ha, scale 0 to 100
[6] = preemergence, 8 g ai/ha, scale 0 to 100, 100 is complete control
[7] = preemergence, 16 g ai/ha, scale 0 to 100, 100 is complete control
[8] = Preemergence, 250 g ai/ha, scale 0 to 100
[9] = Postemergence, 500 g ai/ha, 0 to 100 scale (0 no effect, 100 complete control)
[10] = postemergence, 125 g ai/ha, about 10 days, visual rating on 0 to 100 scale (0 no effect, 100 complete control)

## Cc1cc(C(=O)NCC(F)(F)F)nn1Cc1ccnc(C(F)(F)F)c1 [Compound 74]
goosegrass
  Plant response rating (scale of 0 to 100), Goosegrass: 100
goosegrass; [1]
  Goosegrass plant response rating: 75
goosegrass; 13 to 15 days
  Plant response rating, Goosegrass: 85
goosegrass; [2]
  Goosegrass plant response rating: 100

## CCc1cc(-c2ccc(C(F)(F)F)cc2)nn1Cc1ccnc(C(F)(F)F)c1 [Compound 110]
Wild poinsettia; [3]
  Plant response rating, Wild Poinsettia: 35
Wild poinsettia; [4]
  Plant response rating, Wild Poinsettia: 50
Wild poinsettia; [5]
  Plant response rating, Wild Poinsettia: 80
Wild poinsettia; [6]
  Plant response rating, Wild Poinsettia: 25
Wild poinsettia; [7]
  Plant response rating, Wild Poinsettia: 25
Arrowleaf sida; [3]
  Plant response rating, Arrowleaf Sida: 65
Arrowleaf sida; [4]
  Plant response rating, Arrowleaf Sida: 80
Arrowleaf sida; [5]
  Plant response rating, Arrowleaf Sida: 90
Arrowleaf sida; [6]
  Plant response rating, Arrowleaf Sida: 35
Arrowleaf sida; [7]
  Plant response rating, Arrowleaf Sida: 65
Large crabgrass; [3]
  Plant response rating, Large Crabgrass: 10
Large crabgrass; [4]
  Plant response rating, Large Crabgrass: 75
Large crabgrass; [5]
  Plant response rating, Large Crabgrass: 85
Large crabgrass; [6]
  Plant response rating, Large Crabgrass: 5
Large crabgrass; [7]
  Plant response rating, Large Crabgrass: 5
pigweed, palmer; [3]
  Plant response rating, Pigweed, Palmer: 95
pigweed, palmer; [4]
  Plant response rating, Pigweed, Palmer: 100
pigweed, palmer; [5]
  Plant response rating, Pigweed, Palmer: 100
pigweed, palmer; [6]
  Plant response rating, Pigweed, Palmer: 70
pigweed, palmer; [7]
  Plant response rating, Pigweed, Palmer: 90

## CCc1cc(C(=O)NCC(F)(F)F)nn1Cc1ccnc(Br)c1 [Compound 224]
Wild poinsettia; [4]
  Plant response rating, Wild Poinsettia: 60
Wild poinsettia; [5]
  Plant response rating, Wild Poinsettia: 65
Wild poinsettia; [8]
  Plant response rating, Wild Poinsettia: 85
Arrowleaf sida; [4]
  Plant response rating, Arrowleaf Sida: 35
Arrowleaf sida; [5]
  Plant response rating, Arrowleaf Sida: 30
Arrowleaf sida; [8]
  Plant response rating, Arrowleaf Sida: 35
Large crabgrass; [4]
  Plant response rating, Large Crabgrass: 98
Large crabgrass; [5]
  Plant response rating, Large Crabgrass: 100
Large crabgrass; [8]
  Plant response rating, Large Crabgrass: 100
pigweed, palmer; [4]
  Plant response rating, Pigweed, Palmer: 100
pigweed, palmer; [5]
  Plant response rating, Pigweed, Palmer: 100
pigweed, palmer; [8]
  Plant response rating, Pigweed, Palmer: 100

## CCc1cc(C(=O)NOC(C)C)nn1Cc1ccnc(OC(F)F)c1 [Compound 126]
galium; [9]
  Galium plant response rating: 90
galium; [10]
  Galium plant response rating: 90

## CCOc1cc(C(=O)NCC(F)(F)F)nn1Cc1ccnc(OC(F)F)c1 [Compound 128]
galium; [9]
  Galium plant response rating: 100
galium; [10]
  Galium plant response rating: 90

## CCCNC(=O)c1cc(OCC)n(Cc2ccnc(OC(F)F)c2)n1 [Compound 136]
galium; [9]
  Galium plant response rating: 100
galium; [10]
  Galium plant response rating: 90

## CCONC(=O)c1cc(CC)n(Cc2cccc(OC(F)(F)F)c2)n1 [Compound 72]
goosegrass
  Plant response rating (scale of 0 to 100), Goosegrass: 98
goosegrass; [1]
  Goosegrass plant response rating: 75
goosegrass; 13 to 15 days
  Plant response rating, Goosegrass: 98
goosegrass; [2]
  Goosegrass plant response rating: 98

## CCCc1cc(C(=O)NCC(F)(F)F)nn1Cc1ccnc(OC(F)F)c1 [Compound 127]
galium; [9]
  Galium plant response rating: 90
galium; [10]
  Galium plant response rating: 90

## CCCc1cc(C(=O)NC2CC2)nn1Cc1ccnc(OC(F)F)c1 [Compound 205]
galium; Postemergence, 125 g ai/ha, 0 to 100 scale, 0 no effect, 100 complete control
  Galium plant response rating: 90
galium; [9]
  Galium plant response rating: 90

## CCCc1cc(C(=O)NC(C)C)nn1Cc1cc(C(F)(F)F)nn1C [Compound 201]
Wild poinsettia; [4]
  Plant response rating, Wild Poinsettia: 5
Wild poinsettia; [5]
  Plant response rating, Wild Poinsettia: 25
Wild poinsettia; [8]
  Plant response rating, Wild Poinsettia: 65
Wild poinsettia; [7]
  Plant response rating, Wild Poinsettia: 0
Arrowleaf sida; Preemergence, 16 g ai/ha, scale 0 to 100
  Plant response rating, Arrowleaf Sida: 0
Arrowleaf sida; [4]
  Plant response rating, Arrowleaf Sida: 0
Arrowleaf sida; [5]
  Plant response rating, Arrowleaf Sida: 0
Arrowleaf sida; [8]
  Plant response rating, Arrowleaf Sida: 75
Arrowleaf sida; [7]
  Plant response rating, Arrowleaf Sida: 0
Large crabgrass; [4]
  Plant response rating, Large Crabgrass: 70
Large crabgrass; [5]
  Plant response rating, Large Crabgrass: 100
Large crabgrass; [8]
  Plant response rating, Large Crabgrass: 100
Large crabgrass; [7]
  Plant response rating, Large Crabgrass: 0
Large crabgrass; preemergence, scale 0 to 100, 100 is complete control
  Plant response rating, Large Crabgrass: 35
pigweed, palmer; [4]
  Plant response rating, Pigweed, Palmer: 40
pigweed, palmer; [5]
  Plant response rating, Pigweed, Palmer: 65
pigweed, palmer; [8]
  Plant response rating, Pigweed, Palmer: 90
pigweed, palmer; [7]
  Plant response rating, Pigweed, Palmer: 0

## CCc1cc(C(=O)NOC(C)C)nn1Cc1cccc(OC(F)(F)F)c1 [Compound 70]
goosegrass
  Plant response rating (scale of 0 to 100), Goosegrass: 98
goosegrass; [1]
  Goosegrass plant response rating: 60
goosegrass; 13 to 15 days
  Plant response rating, Goosegrass: 80
goosegrass; [2]
  Goosegrass plant response rating: 95

Source: US20150105252A1, “SUBSTITUTED PYRAZOLES AS HERBICIDES” (E I DU PONT DE NEMOURS AND COMPANY, priority 2013, published 2015)
